The text below walks through data of paper PMC10755728, “Inhibitors of the Elastase LasB for the Treatment of Pseudomonas aeruginosa Lung Infections” (ACS Central Science, 2023).

Where two headings read alike, the source gives them in different places.

What is called IC50 is the concentration needed to halve the response being measured. What is called Ki is a measure of affinity in units of concentration, obtained from inhibition or displacement.

The target of one test is T1, LasB (Pseudomonas aeruginosa, UniProt Q02RJ6).
T1 construct: made in house
T1 sequence (Q02RJ6 198-498): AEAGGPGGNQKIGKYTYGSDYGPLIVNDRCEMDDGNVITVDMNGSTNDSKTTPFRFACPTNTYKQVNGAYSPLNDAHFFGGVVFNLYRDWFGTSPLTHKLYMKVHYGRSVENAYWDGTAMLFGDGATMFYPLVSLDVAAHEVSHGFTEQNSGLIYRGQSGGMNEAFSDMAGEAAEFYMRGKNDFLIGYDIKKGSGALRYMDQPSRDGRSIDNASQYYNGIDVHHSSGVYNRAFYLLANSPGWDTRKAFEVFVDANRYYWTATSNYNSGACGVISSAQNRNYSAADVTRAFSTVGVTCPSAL
In words: biochemical. In kind it is biochemical. The note with it: for inhibition at 100 µM: read-out: % inh LasB @100 µM; for fold drop in activity compared to the 4-Me derivative (4a): vs 4a.

Another test concerns the target ColH-PD (Hathewaya histolytica, UniProt Q46085). The test can be described thus: biochemical. It counts as biochemical, Clostridium histolyticum. Conditions: for inhibition at 1 µM: read-out: % inhibition ColH-PD @1 µM.
Setting [1] is: FRET-based assay, read-out: LasB IC50.

Chain of ColH-PD (Q46085 331-721 limits assumed): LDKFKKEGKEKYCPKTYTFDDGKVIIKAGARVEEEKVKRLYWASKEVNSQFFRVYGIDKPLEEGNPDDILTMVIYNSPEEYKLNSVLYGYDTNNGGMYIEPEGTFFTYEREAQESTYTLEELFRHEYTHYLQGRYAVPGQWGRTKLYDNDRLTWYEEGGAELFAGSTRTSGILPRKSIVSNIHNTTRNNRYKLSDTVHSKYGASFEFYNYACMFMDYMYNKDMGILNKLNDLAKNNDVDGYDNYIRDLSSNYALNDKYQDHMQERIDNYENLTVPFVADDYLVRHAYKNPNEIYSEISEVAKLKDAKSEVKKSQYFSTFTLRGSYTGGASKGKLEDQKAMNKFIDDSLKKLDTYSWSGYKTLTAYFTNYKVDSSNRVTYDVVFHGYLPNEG

For the compound `CC(=O)c1ccc(NC(=O)CP(=O)(O)O)cc1` [Compound 2], the inhibition at 600 µM at LasB (read-out: % LasB inhibition @600 µM) came out at 33 ± 4%.

As for `Cc1ccc(NC(=O)[C@H](CC(C)C)NC(=O)OC(C)(C)C)cc1` [Compound 3a], the inhibition at 100 µM on LasB is less than 10%. Same read-out and setting: the figure for `Cc1ccc(NC(=O)[C@@H](N)CC(C)C)cc1` [Compound 3b] is less than 10%. `Cc1ccc(NC(=O)C(CC(C)C)OS(N)(=O)=O)cc1` (stereo not drawn) [Compound 3c]: at LasB (LasB IC50, FRET-based assay), the IC50 was 53000 ± 4000 nM. Turning to `CCOC(=O)C(CC(C)C)C(=O)Nc1ccc(C)cc1` (stereo not drawn) [Compound 3d], the inhibition at 100 µM at LasB is less than 10%. Still for that read-out and setting: to `Cc1ccc(NC(=O)C(CC(C)C)C(=O)O)cc1` (stereo not drawn) [Compound 3e] belongs 46 ± 3%; to `Cc1ccc(NC(=O)C(CC(C)C)c2nn[nH]n2)cc1` (stereo not drawn) [Compound 3j], less than 10%; to `Cc1ccc(NC(=O)C(CC(C)C)n2ccnc2)cc1` (stereo not drawn) [Compound 3k], 14 ± 4%. Take `Cc1ccc(NC(=O)C(CC(C)C)n2cncn2)cc1` (stereo not drawn) [Compound 3n]: the inhibition at 100 µM at LasB is less than 10%. Compound `CCCC(C(=O)Nc1ccc(OC)cc1)P(=O)(O)O` (stereo not drawn) [Compound 4ab] came in with an IC50 at LasB (LasB IC50, FRET-based assay) of 1110 nM. As for `CCCC(C(=O)Nc1ccc(C(C)=O)cc1)P(=O)(O)O` (stereo not drawn) [Compound 4ad], at LasB (LasB IC50, FRET-based assay), the IC50 amounted to 870 ± 30 nM. On to `CC(C)CC(C(=O)Nc1ccc(Cl)c(Cl)c1)P(=O)(O)O` (stereo not drawn) [Compound 4c], for which half-maximal inhibition at LasB (LasB IC50, FRET-based assay) (IC50) required 25.7 ± 4.1 nM. Moreover, the “fold more active than 4-acetyl (4g)” value at LasB (vs 4g) was 1.6 fold. Further, the inhibition at 1 µM on ColH-PD is less than 10%. Consider `Cc1ccc(NC(=O)C(CC(C)C)P(=O)(O)O)c(F)c1` (stereo not drawn) [Compound 4d], for which the IC50 at LasB (setting [1]) stood at 116 ± 16.1 nM. For the same compound, the “fold drop in activity compared to the 4-Me derivative (4a)” value on LasB is roughly 2 fold. Besides, the inhibition at 1 µM on ColH-PD is less than 10%.

Take `Cc1ccc(NC(=O)C(CC(C)C)P(=O)(O)O)c(C)c1` (stereo not drawn) [Compound 4e]: on LasB (setting [1]), the IC50 stood at 84.5 ± 2.7 nM. Moreover, the “fold drop in activity compared to the 4-Me derivative (4a)” value on LasB was roughly 2 fold. Turning to `COc1ccc(NC(=O)C(CC(C)C)P(=O)(O)O)cc1` (stereo not drawn) [Compound 4f], the IC50 at LasB (setting [1]) was 51.8 ± 10.4 nM. Also, the inhibition at 1 µM on ColH-PD is less than 10%. As for `CC(=O)c1ccc(NC(=O)C(CC(C)C)P(=O)(O)O)cc1` (stereo not drawn) [Compound 4g], the IC50 at LasB (setting [1]) was 40.4 ± 11.6 nM. At ColH-PD, the “% inhibition ColH-PD @1 µM” value is reported as 65%, the Ki came out at 320 ± 70 nM and the “fold higher potency against ColH compared to 2” value amounted to 20 fold. Regarding `CC(C)CC(C(=O)Nc1ccc(Cl)cc1)P(=O)(O)O` (stereo not drawn) [Compound 4i], the IC50 on LasB (setting [1]) was 47.6 ± 4.4 nM. As to `CC(C)CC(C(=O)Nc1ccc(Br)cc1)P(=O)(O)O` (stereo not drawn) [Compound 4j], the half-inhibitory concentration (IC50) on LasB (setting [1]) is 48.6 ± 2.3 nM. With `CC(C)CC(C(=O)Nc1cccc2ccccc12)P(=O)(O)O` (stereo not drawn) [Compound 4m], on LasB (setting [1]), the half-maximal inhibitory concentration (IC50) amounted to 69.1 ± 7.5 nM. Still for that read-out and setting: the figure for `CC(C)CC(C(=O)Nc1ccc2ccccc2c1)P(=O)(O)O` (stereo not drawn) [Compound 4n] is 63.6 ± 9.9 nM; for `CC(C)CC(C(=O)Nc1ccc2c(c1)CCC2)P(=O)(O)O` (stereo not drawn) [Compound 4o] it is 44.3 ± 4.5 nM. For the compound `CC(C)CC(C(=O)Nc1ccc(Cl)cn1)P(=O)(O)O` (stereo not drawn) [Compound 4p], the IC50 on LasB (setting [1]) was 500 ± 40 nM. The “fold more potent than 4q” value on LasB (vs 4q) worked out at 2 fold.

Regarding `CC(C)CC(C(=O)Nc1ccc(C(N)=O)nc1)P(=O)(O)O` (stereo not drawn) [Compound 4r], half-maximal inhibition against LasB (LasB IC50, FRET-based assay) (IC50) required 220 ± 20 nM. As to `Cc1ccc(NC(=O)C(Cc2ccccc2)P(=O)(O)O)cc1` (stereo not drawn) [Compound 4x], the IC50 on LasB (setting [1]) was found to be 137 ± 33 nM.

On to `O=C(Nc1ccc(C(F)(F)F)cc1)C(Cc1ccccc1)P(=O)(O)O` (stereo not drawn) [Compound 4y], for which the half-inhibitory concentration (IC50) at LasB (setting [1]) was found to be 101.5 ± 0.9 nM. In the case of `Cc1ccc(NC(=O)C(CC2CCCCC2)P(=O)(O)O)cc1` (stereo not drawn) [Compound 4z], the half-maximal inhibitory concentration (IC50) at LasB (setting [1]) was 2030 nM.
